Columns and labels:
Type in all cases: cell-based
[1] = system: Fusarium Virguliforme K6286; test: Efficacy of mixtures of streptimidone and CtmC, liquid culture in PDB, optical density 620 nm
[2] = system: Zymoseptoria tritici K6318; test: as above
[3] = system: Gibberella zeae (Fusarium graminearum); test: microbe, parasite or virus in culture; conditions: read-out: % Efficacy
[4] = system: Zymoseptoria tritici K6105; test: Efficacy of mixtures of streptimidone and CtmC, liquid culture in PDB, optical density 620 nm; conditions: for Emax at 1.23 ppm: K6105, Streptimidone 1.23 ppm alone (CtmC 0); for Emax at 3.7 ppm: K6105, Streptimidone 3.70 ppm alone (CtmC 0); for Emax at 11.11 ppm: K6105, Streptimidone 11.11 ppm alone (CtmC 0); for Emax at 33.33 ppm: K6105, Streptimidone 33.33 ppm alone (CtmC 0)
[5] = system: Zymoseptoria tritici K6420; test: as above
Microdochium nivale = test: as above
[6] = system: Fusarium Virguliforme K6285; test: as above
[7] = Streptimidone 0.14 ppm alone (CtmC 0)
[8] = Streptimidone 0.41 ppm alone (CtmC 0)
[9] = Streptimidone 1.23 ppm alone (CtmC 0)
[10] = Streptimidone 3.70 ppm alone (CtmC 0)
[11] = Streptimidone 11.11 ppm alone (CtmC 0)
[12] = Streptimidone 33.33 ppm alone (CtmC 0)
[13] = Streptimidone 100 ppm alone (CtmC 0)

C=C/C(C)=C/[C@H](C)C(=O)C[C@H](O)CC1CC(=O)NC(=O)C1 [Streptimidone]
Emax at 0.14 ppm [1, 7]: 8% | Emax at 0.41 ppm [1, 8]: 16% | Emax at 1.23 ppm [1, 9]: 14% | Emax at 3.7 ppm [1, 10]: 16% | Emax at 11.11 ppm [1, 11]: 16% | Emax at 33.33 ppm [1, 12]: 30% | Emax at 100 ppm [1, 13]: 47% | Emax at 0.14 ppm [2, 7]: 0% | Emax at 0.41 ppm [2, 8]: 0% | Emax at 1.23 ppm [2, 9]: 0% | Emax at 3.7 ppm [2, 10]: 3% | Emax at 11.11 ppm [2, 11]: 8% | Emax at 33.33 ppm [2, 12]: 18% | Emax at 100 ppm [2, 13]: 44% | Emax at 33.33 ppm [3]: 50% | Emax at 100 ppm [3]: 63% | Emax at 0.41 ppm ([4]; K6105, Streptimidone 0.41 ppm alone (CtmC 0), lower sub-table): 7% | Emax at 1.23 ppm ([4]; lower sub-table): 17% | Emax at 1.23 ppm ([4]; upper sub-table): 27% | Emax at 3.7 ppm ([4]; lower sub-table): 32% | Emax at 3.7 ppm ([4]; upper sub-table): 39% | Emax at 11.11 ppm ([4]; lower sub-table): 48% | Emax at 11.11 ppm ([4]; upper sub-table): 59% | Emax at 33.33 ppm ([4]; lower sub-table): 67% | Emax at 33.33 ppm ([4]; upper sub-table): 81% | Emax at 100 ppm ([4]; K6105, Streptimidone 100 ppm alone (CtmC 0), lower sub-table): 83% | Emax at 0.41 ppm ([5]; K6420, Streptimidone 0.41 ppm alone (CtmC 0)): 7% | Emax at 1.23 ppm ([5]; K6420, Streptimidone 1.23 ppm alone (CtmC 0)): 17% | Emax at 3.7 ppm ([5]; K6420, Streptimidone 3.70 ppm alone (CtmC 0)): 32% | Emax at 11.11 ppm ([5]; K6420, Streptimidone 11.11 ppm alone (CtmC 0)): 48% | Emax at 33.33 ppm ([5]; K6420, Streptimidone 33.33 ppm alone (CtmC 0)): 67% | Emax at 100 ppm ([5]; K6420, Streptimidone 100 ppm alone (CtmC 0)): 83% | Emax at 0.41 ppm (Microdochium nivale; [8]): 0% | Emax at 1.23 ppm (Microdochium nivale; [9]): 0% | Emax at 3.7 ppm (Microdochium nivale; [10]): 5% | Emax at 11.11 ppm (Microdochium nivale; [11]): 8% | Emax at 33.33 ppm (Microdochium nivale; [12]): 22% | Emax at 0.14 ppm [6, 7]: 10% | Emax at 0.41 ppm [6, 8]: 21% | Emax at 1.23 ppm [6, 9]: 13% | Emax at 3.7 ppm [6, 10]: 18% | Emax at 11.11 ppm [6, 11]: 18% | Emax at 33.33 ppm [6, 12]: 26% | Emax at 100 ppm [6, 13]: 53%
